Here are results for 15 compounds from patent US11542262B2, “Phosphatidylinositol 3-kinase inhibitors” (NANJING ZHENGXIANG PHARMACEUTICALS CO., LTD., priority 2019, dated 2023).

Values after ≈ are worked out from the molar mass of the structure shown. A value given as a limit tells only on which side of the number the result lay.

One data set has as its target PI3Kγ (Homo sapiens, UniProt P48736). The data set can be described thus: ADP-Glo luminescent assay, enzymatic activity of PI3K gamma. Format: biochemical. Particulars: ATP 25 μM; read-out: PI3K gamma (nM) inhibitory activity (IC50). The procedure:
The compounds would be tested from 1 or 10 μM, 3-fold dilution for 10 doses, in duplicate.
(§1) Compound preparation: Dilute a compound to 100× of the final desired highest inhibitor concentration in reaction by 100% DMSO. Transfer 100 μl of this compound dilution to a well in a 96-well plate and serially dilute it with DMSO for a total of 10 concentrations.
Kinase reaction: Prepare a solution of PI3K in 1× kinase buffer at 2-fold the final concentration of each reagent in the assay. Control wells contain 1× kinase buffer without enzyme. Prepare substrate solution of PIP2 substrate and ATP in 1× kinase reaction buffer at 2-fold of the final concentration. Add concentration substrate solution to each well to the final concentration. Cover the assay plate, shake to mix, and incubate at room temperature for 1 hour. Add 5 μl of ADP-Glo reagent to each well to stop the reaction. […] Add 10 ul Kinase Detection Reagent to each well, shake 1 min, equilibrate for 30 min before reading on a luminescence plate reader.
(§2) Data Analysis: Convert RLU values to percent inhibition values as Percent inhibition=(max−sample RLU)/(max−min)*100. “min”—no enzyme control; “max”—DMSO control. Fit the data in XLFit excel add-in version 5.4.0.8 to obtain IC50 values. Y=Bottom+(Top−Bottom)/(1+(IC50/X)^HillSlope).

A further data set has as its target PI3Kδ (Homo sapiens, UniProt O00329). Kind of data set: ADP-Glo luminescent assay, enzymatic activity of PI3K delta. Format: biochemical. The conditions noted are these: ATP 25 μM; read-out: PI3K delta (nM) inhibitory activity (IC50). The method, then: Enzymatic activity of PI3K isoforms: Enzymatic activity of the class I PI3K isoforms in the presence of the compounds of Table 1 was measured using ADP-Glo luminescent assay against PI3Kα, PI3Kβ, PI3Kδ and PI3Kγ with ATP concentration at 25 μM. […] The compounds would be tested from 1 or 10 μM, 3-fold dilution for 10 doses, in duplicate.
as §1
Kinase reaction: Prepare a solution of PI3K in 1× kinase buffer at 2-fold the final concentration of each reagent in the assay. Control wells contain 1× kinase buffer without enzyme. Prepare substrate solution of PIP2 substrate and ATP in 1× kinase reaction buffer at 2-fold of the final concentration. Add concentration substrate solution to each well to the final concentration. Cover the assay plate, shake to mix, and incubate at room temperature for 1 hour. Add 5 μl of ADP-Glo reagent to each well to stop the reaction. Mix briefly with a quick spin, shake slowly on the shaker for 120 min. Add 10 ul Kinase Detection Reagent to each well, shake 1 min, equilibrate for 30 min before reading on a luminescence plate reader.
as §2
Background: ADP-Glo turns the ADP formed in a reaction into a luminescent signal.

For a further data set, the target named is T1, PI3K gamma (Mus musculus, UniProt Q9JHG7).
T1 construct: endogenous in cells; host or cells: RAW264.7
T1 sequence (Q9JHG7 whole entry): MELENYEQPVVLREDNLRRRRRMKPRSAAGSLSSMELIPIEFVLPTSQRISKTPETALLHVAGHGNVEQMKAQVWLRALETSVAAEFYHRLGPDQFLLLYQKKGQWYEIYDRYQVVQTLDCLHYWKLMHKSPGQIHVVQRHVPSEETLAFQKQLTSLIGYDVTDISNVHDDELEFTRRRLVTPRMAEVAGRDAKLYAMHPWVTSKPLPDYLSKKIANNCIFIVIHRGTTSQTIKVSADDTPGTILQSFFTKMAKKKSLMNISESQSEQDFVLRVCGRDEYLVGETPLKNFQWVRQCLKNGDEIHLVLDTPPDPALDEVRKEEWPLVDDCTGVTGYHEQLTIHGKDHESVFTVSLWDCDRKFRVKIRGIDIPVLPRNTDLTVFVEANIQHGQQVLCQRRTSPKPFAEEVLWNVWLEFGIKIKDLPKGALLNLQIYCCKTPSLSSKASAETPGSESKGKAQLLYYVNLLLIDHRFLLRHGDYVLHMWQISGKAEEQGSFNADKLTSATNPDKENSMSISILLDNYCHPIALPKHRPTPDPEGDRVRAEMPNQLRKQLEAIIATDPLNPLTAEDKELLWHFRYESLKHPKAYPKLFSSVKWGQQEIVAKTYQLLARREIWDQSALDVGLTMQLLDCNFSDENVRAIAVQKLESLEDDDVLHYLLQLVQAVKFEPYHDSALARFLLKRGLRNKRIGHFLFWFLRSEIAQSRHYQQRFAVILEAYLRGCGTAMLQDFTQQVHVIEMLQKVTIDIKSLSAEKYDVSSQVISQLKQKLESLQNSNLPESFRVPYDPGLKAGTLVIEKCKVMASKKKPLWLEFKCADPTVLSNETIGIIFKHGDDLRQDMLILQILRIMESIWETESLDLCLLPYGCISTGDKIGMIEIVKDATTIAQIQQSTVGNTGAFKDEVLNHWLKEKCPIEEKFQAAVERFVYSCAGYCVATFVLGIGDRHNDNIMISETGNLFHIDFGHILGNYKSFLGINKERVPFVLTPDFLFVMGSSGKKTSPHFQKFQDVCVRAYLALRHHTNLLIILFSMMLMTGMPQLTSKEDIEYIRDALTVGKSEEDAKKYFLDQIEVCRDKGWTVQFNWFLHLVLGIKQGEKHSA
T1 sequence (Q5SW28 whole entry partner): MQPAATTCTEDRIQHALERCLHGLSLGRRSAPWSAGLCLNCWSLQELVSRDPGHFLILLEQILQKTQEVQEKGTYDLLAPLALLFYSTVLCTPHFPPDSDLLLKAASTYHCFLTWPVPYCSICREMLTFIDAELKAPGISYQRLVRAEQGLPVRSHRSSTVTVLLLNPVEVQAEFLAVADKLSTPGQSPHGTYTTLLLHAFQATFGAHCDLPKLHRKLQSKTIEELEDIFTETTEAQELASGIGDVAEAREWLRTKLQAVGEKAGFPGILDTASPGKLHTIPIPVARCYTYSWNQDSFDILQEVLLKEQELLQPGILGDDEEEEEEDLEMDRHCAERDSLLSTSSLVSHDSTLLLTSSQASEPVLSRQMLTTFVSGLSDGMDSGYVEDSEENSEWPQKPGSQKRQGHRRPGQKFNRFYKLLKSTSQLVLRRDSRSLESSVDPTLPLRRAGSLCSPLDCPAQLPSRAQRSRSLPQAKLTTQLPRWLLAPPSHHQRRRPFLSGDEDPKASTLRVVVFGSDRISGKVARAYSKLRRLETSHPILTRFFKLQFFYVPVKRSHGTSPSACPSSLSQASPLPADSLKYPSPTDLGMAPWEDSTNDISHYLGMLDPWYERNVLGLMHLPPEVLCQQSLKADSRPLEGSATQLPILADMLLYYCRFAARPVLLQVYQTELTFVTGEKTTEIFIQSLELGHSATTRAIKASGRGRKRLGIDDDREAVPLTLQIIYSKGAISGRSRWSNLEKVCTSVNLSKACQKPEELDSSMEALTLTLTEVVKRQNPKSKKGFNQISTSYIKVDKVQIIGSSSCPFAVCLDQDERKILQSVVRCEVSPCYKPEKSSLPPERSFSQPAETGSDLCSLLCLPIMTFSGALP
The data set can be described thus: Raw264.7 cell assay: phosphorylation of AKT in C5a stimulated RAW264.7 cells (AlphaLISA). Format: cell-based. Particulars: pAKT, read-out: PI3K gamma Raw264.7 cell (nM) cellular activity (IC50). The procedure: This study aims to determine the inhibitory effect of compounds on PI3K gamma and PI3K delta in corresponding cell based assays. PI3K gamma activity was reflected by phosphorylation of AKT in C5a stimulated RAW264.7 cells, and PI3K delta activity was reflected by phosphorylation of AKT in anti-IgM stimulated Raji cells. Phosphorylation of AKT in cells was determined using AlphaLISA technology from PerkinElmer.
Raw264.7 cell assay: Prepare Passage 15 Raw264.7 cell and add 6 μL of 30K cells per well in 384-well plate by multidrop. Centrifuge at 500 RPM for 30 s and incubate for 2 hours at 37° C., 5% CO2. Add 30 nL compound by echo and incubate for 30 min at 37° C., 5% CO2. […] Add 2 μL of 5× lysis buffer by multidrop, incubate for 10 min on a plate shaker. Add 5 μL acceptor mix provided in the kit, centrifuge at 1000 RPM for 1 min. Add 5 μL donor mix provided in the kit, centrifuge at 1000 RPM for 1 min and incubate in dark for 2 hours at 25° C. Read AlphaLISA signal on Envision.
Y=Bottom+(Top−Bottom)/(1+10^((Log IC50−X)*Hill Slope)) X: Log of cpd concentration Y: Inhibition
For orientation: In Alpha technology, singlet oxygen from a donor bead excites a nearby acceptor bead.

Data set [1] in a line: Kinetic solubility test in PBS pH7.4. Format: physicochemical. Particulars: aqueous buffer, kinetic from dmso stock; PBS pH 7.4, 25° C., 2 hours. The procedure:
15 μL of stock solution (10 mM) was placed in order into their proper 96-well rack. 485 μL of PBS pH7.4 was added into each vial of the cap-less Solubility Sample plate. The assay was performed in singlet. Add one stir stick to each vial and seal using a molded PTFE/Silicone plug. […] After completion of the 2 hours, the samples from the Solubility Sample plate were transferred into the filter plate. all the samples were filtered using the Vacuum Manifold. Aliquot of 5 μL was taken from the filtrate followed by addition of 495 μL of a mixture of H2O and acetonitrile containing internal standard (1:1). A certain proportion of ultrapure water was used to dilute the diluent according to the peak shape. The dilution factor was changed according to the solubility values and the LC-MS signal response.
Preparation of 3 μM standards (STD): From the 10 mM DMSO STD plate, 6 μL was transferred into the remaining empty plate, and then 194 μL of DMSO was added to that plate to have a STD concentration of 300 μM. From the 300 μM DMSO STD plate, 5 μL was transferred into the remaining empty plate, and then 495 μL of a mixture of H2O and acetonitrile containing internal standard (1:1) was added to that plate to have a final STD concentration of 3 μM. A certain proportion of ultrapure water was used to dilute the diluent according to the peak shape. The concentrations of the standard samples were changed according to the LC-MS signal response.
Procedure for sample analysis: The plate was placed into the well plate autosampler. The samples were evaluated by LC-MS/MS analysis.
Data analysis: All calculations were carried out using Microsoft Excel.
The filtrate was analyzed and quantified against a standard of known concentration using LC coupled with mass spectral peak identification and quantitation. Solubility values of the test compound and control compound were calculated as follows:
[formula] • Any value of the compounds that was not within the specified limits was rejected and the experiment was repeated.

As usually defined, the solubility is the concentration that dissolves in the medium under given conditions. A low value points to a poorly soluble substance.

PI3Kγ, sequence (P48736 whole entry, species assumed): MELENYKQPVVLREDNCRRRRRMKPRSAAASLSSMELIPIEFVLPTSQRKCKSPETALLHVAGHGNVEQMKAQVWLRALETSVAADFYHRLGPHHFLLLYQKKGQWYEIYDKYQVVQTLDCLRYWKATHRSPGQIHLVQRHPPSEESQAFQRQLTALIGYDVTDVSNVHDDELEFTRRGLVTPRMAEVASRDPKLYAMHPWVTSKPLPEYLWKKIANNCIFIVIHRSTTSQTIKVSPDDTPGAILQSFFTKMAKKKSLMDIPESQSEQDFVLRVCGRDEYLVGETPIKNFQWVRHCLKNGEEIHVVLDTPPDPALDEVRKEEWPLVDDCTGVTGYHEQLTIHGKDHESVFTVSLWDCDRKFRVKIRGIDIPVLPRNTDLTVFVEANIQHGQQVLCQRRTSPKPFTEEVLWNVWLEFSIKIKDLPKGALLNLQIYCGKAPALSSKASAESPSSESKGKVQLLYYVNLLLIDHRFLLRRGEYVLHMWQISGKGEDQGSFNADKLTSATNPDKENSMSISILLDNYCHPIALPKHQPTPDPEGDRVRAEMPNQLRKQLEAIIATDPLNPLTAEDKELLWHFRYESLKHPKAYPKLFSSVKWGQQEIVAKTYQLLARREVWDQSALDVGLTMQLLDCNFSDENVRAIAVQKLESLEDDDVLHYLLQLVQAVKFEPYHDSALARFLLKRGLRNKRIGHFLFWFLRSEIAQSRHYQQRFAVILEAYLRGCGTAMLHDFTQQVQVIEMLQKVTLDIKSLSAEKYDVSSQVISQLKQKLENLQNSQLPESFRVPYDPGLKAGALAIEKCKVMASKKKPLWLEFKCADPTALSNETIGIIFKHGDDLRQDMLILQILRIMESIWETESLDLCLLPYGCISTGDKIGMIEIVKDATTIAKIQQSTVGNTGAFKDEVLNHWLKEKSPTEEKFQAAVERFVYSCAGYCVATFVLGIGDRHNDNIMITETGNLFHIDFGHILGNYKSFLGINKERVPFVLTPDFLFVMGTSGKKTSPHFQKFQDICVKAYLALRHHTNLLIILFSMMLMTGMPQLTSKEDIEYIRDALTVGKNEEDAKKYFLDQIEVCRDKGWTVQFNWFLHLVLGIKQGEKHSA
PI3Kδ, sequence (O00329 whole entry, species assumed, canonical isoform): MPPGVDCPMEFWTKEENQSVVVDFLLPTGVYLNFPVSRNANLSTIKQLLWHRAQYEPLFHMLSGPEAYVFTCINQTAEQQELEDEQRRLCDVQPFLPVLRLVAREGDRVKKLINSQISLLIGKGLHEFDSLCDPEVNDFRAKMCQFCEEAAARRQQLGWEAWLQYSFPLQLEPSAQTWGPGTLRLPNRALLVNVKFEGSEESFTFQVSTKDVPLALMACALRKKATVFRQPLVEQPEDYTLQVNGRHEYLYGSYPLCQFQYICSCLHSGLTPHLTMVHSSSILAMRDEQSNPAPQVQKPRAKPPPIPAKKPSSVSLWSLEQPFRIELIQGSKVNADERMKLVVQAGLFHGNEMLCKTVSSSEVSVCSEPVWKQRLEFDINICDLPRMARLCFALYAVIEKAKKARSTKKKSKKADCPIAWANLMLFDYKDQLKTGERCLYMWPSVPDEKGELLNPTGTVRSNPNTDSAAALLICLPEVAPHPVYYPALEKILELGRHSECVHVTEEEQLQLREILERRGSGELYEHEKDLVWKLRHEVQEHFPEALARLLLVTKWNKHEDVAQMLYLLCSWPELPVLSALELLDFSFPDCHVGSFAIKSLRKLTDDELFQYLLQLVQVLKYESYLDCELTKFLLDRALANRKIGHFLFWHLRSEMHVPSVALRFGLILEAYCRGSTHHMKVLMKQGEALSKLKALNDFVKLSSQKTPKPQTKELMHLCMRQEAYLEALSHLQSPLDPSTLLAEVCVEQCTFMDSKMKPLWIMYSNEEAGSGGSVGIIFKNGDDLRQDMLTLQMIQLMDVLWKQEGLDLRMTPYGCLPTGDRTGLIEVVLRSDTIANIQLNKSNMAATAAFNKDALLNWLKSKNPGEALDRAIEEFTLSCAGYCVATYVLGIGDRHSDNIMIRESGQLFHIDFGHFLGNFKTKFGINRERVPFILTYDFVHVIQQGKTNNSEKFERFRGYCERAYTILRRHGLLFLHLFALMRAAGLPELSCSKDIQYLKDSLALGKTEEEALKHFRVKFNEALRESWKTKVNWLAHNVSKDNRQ
PI3Kδ, sequence (P27986 whole entry partner, species assumed, canonical isoform): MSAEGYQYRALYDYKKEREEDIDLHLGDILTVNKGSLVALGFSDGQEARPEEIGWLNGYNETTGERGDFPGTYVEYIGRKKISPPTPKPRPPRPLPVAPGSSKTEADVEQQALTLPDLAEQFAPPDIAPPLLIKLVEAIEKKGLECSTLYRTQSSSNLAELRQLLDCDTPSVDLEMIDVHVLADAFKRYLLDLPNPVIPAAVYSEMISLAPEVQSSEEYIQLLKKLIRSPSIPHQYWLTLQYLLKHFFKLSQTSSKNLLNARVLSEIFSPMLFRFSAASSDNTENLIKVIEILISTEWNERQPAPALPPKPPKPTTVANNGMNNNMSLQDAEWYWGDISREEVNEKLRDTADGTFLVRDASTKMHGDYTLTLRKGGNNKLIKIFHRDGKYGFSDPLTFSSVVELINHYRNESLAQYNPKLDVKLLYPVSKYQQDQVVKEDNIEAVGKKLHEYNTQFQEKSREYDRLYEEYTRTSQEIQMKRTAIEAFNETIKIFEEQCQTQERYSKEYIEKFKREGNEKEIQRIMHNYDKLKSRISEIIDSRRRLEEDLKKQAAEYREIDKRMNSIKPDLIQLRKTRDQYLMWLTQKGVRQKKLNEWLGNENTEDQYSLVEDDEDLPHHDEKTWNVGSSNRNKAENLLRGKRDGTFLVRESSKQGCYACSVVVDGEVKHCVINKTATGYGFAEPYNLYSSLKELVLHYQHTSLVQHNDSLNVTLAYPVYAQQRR

Take `CCC(=O)Nc1nc(C)c(-c2cc3c(c(P(C)(C)=O)c2)C(=O)N([C@@H](C)C2CC2)C3)s1` [Compound 2, (S)-N-(5-(2-(1-cyclopropylethyl)-7-(dimethylphosphoryl)-1-oxoisoindolin-5-yl)-4-methylthiazol-2-yl)propionamide]: the IC50 at PI3Kγ is 3.7 nM; at PI3Kδ it was more than 1000 nM.

On to `CC(=O)Nc1nc(C)c(-c2cc3c(c(NC(=O)C4CC4)n2)C(=O)N([C@@H](C)C2CC2)C3)s1` [Compound 26, (S)-N-(6-(2-acetamido-4-methylthiazol-5-yl)-2-(1-cyclopropylethyl)-3-oxo-2,3-dihydro-M-pyrrolo[3,4-c]pyridin-4-yl)cyclopropanecarboxamide], for which the IC50 on PI3Kγ is 1.4 nM; on PI3Kδ it was more than 1000 nM.

For `CNC(=O)c1nc(-c2sc(NC(C)=O)nc2C)cc2c1C(=O)N([C@@H](C)C1CC1)C2` [Compound 32, (S)-6-(2-acetamido-4-methylthiazol-5-yl)-2-(1-cyclopropylethyl)-N-methyl-3-oxo-2,3-dihydro-1H-pyrrolo[3,4-c]pyridine-4-carboxamide], the results for the IC50 on PI3Kγ and on PI3K gamma were 2.2 nM and 208 nM, respectively.

On to `CC(=O)Nc1nc(C)c(-c2cc3c(c(N4CCNCC4)n2)C(=O)N([C@@H](C)C2CC2)C3)s1` [Compound 39, (S)-N-(5-(2-(1-cyclopropylethyl)-3-oxo-4-(piperazin-1-yl)-2,3-dihydro-1H-pyrrolo[3,4-c]pyridin-6-yl)-4-methylthiazol-2-yl)acetamide], for which the IC50 at PI3Kγ is 3.7 nM; on PI3K gamma it was 271 nM.

For the compound `CC(=O)Nc1nc(C)c(-c2cc3c(c(N4CCN(C(C)=O)CC4)n2)C(=O)N([C@@H](C)C2CC2)C3)s1` [Compound 40, (S)-N-(5-(4-(4-acetylpiperazin-1-yl)-2-(1-cyclopropylethyl)-3-oxo-2,3-dihydro-1H-pyrrolo[3,4-c]pyridin-6-yl)-4-methylthiazol-2-yl)acetamide], the values for the IC50 on PI3Kγ and on PI3K gamma were 2 nM and 6.3 nM, respectively. In data set [1], this compound displayed a solubility at 2 h of 25 µM (≈ 12.1 µg/mL).

Turning to `CC(=O)Nc1ncc(-c2cc3c(c(N4CCOCC4)n2)C(=O)N([C@@H](C)C2CC2)C3)s1` [Compound 41, (S)-N-(5-(2-(1-cyclopropylethyl)-4-morpholino-3-oxo-2,3-dihydro-1H-pyrrolo[3,4-c]pyridin-6-yl)thiazol-2-yl)acetamide], the IC50 at PI3Kγ was determined as 2.3 nM. Moreover, the concentration in solution in data set [1] (solubility at 2 h) came to 3.5 µM (≈ 1.5 µg/mL).

In the case of `COCCOc1nc(-c2sc(NC(C)=O)nc2C)cc2c1C(=O)N([C@@H](C)C1CC1)C2` [Compound 42, (S)-N-(5-(2-(1-cyclopropylethyl)-4-(2-methoxyethoxy)-3-oxo-2,3-dihydro-1H-pyrrolo[3,4-c]pyridin-6-yl)-4-methylthiazol-2-yl)acetamide], at PI3Kγ, the IC50 turned out to be 1.8 nM. The same compound showed a solubility at 2 h in data set [1] of 2.6 µM (≈ 1.12 µg/mL).

In the case of `CC(=O)Nc1nc(C)c(-c2cc3c(c(N4CCC(O)CC4)n2)C(=O)N([C@@H](C)C2CC2)C3)s1` [Compound 46, (S)-N-(5-(2-(1-cyclopropylethyl)-4-(4-hydroxypiperidin-1-yl)-3-oxo-2,3-dihydro-1H-pyrrolo[3,4-c]pyridin-6-yl)-4-methylthiazol-2-yl)acetamide], the IC50 on PI3Kγ came to 0.7 nM; on PI3K gamma, 3.8 nM. In data set [1], the solubility at 2 h came out at 6.1 µM (≈ 2.78 µg/mL).

Consider `CC(=O)Nc1nc(C)c(-c2cc3c(c(N4CC(O)C4)n2)C(=O)N([C@@H](C)C2CC2)C3)s1` [Compound 48, (S)-N-(5-(2-(1-cyclopropylethyl)-4-(3-hydroxyazetidin-1-yl)-3-oxo-2,3-dihydro-1H-pyrrolo[3,4-c]pyridin-6-yl)-4-methylthiazol-2-yl)acetamide], for which the IC50 on PI3Kγ was determined as 0.84 nM; on PI3K gamma, 14 nM.

With `CC(=O)Nc1nc(C)c(-c2cc3c(c(N4CC(S(C)(=O)=O)C4)n2)C(=O)N([C@@H](C)C2CC2)C3)s1` [Compound 49, (S)-N-(5-(2-(1-cyclopropylethyl)-4-(3-(methylsulfonyl)azetidin-1-yl)-3-oxo-2,3-dihydro-1H-pyrrolo[3,4-c]pyridin-6-yl)-4-methylthiazol-2-yl)acetamide], the IC50 at PI3Kγ was 1 nM; at PI3K gamma, 38 nM.

Consider `CC(=O)Nc1nc(C)c(-c2cc3c(c(OCCO)n2)C(=O)N([C@@H](C)C2CC2)C3)s1` [Compound 50, (S)-N-(5-(2-(1-cyclopropylethyl)-4-(2-hydroxyethoxy)-3-oxo-2,3-dihydro-1H-pyrrolo[3,4-c]pyridin-6-yl)-4-methylthiazol-2-yl)acetamide], for which the results for the IC50 on PI3Kγ and on PI3K gamma were 1 nM and 20 nM, respectively.

As for `CC(=O)Nc1nc(C)c(-c2cc3c(c(OC4COC4)n2)C(=O)N([C@@H](C)C2CC2)C3)s1` [Compound 52, (S)-N-(5-(2-(1-cyclopropylethyl)-4-(oxetan-3-yloxy)-3-oxo-2,3-dihydro-1H-pyrrolo[3,4-c]pyridin-6-yl)-4-methylthiazol-2-yl)acetamide], the IC50 amounted to 1.1 nM at PI3Kγ and 12 nM at PI3K gamma.

Take `CC(=O)Nc1nc(C)c(-c2cc3c(c(CN4CCOCC4)n2)C(=O)N([C@@H](C)C2CC2)C3)s1` [Compound 54, (S)-N-(5-(2-(1-cyclopropylethyl)-4-(morpholinomethyl)-3-oxo-2,3-dihydro-1H-pyrrolo[3,4-c]pyridin-6-yl)-4-methylthiazol-2-yl)acetamide]: the results for the IC50 at PI3Kγ and at PI3K gamma were 4.6 nM and 17 nM, respectively.

`CC(=O)Nc1nc(C)c(-c2cc3c(c(C(C)N4CCOCC4)n2)C(=O)N([C@@H](C)C2CC2)C3)s1` (stereo partly drawn) [Compound 55, N-(5-(2-((S)-1-cyclopropylethyl)-4-(1-morpholinoethyl)-3-oxo-2,3-dihydro-1H-pyrrolo[3,4-c]pyridin-6-yl)-4-methylthiazol-2-yl)acetamide]: the IC50 at PI3Kγ was determined as 1.7 nM; at PI3K gamma it was 18 nM.

As to `C[C@H](NC(=O)c1c(N)nn2cccnc12)c1cc2cccc(C#Cc3cnn(C)c3)c2c(=O)n1-c1ccccc1` [IPI-549, reference compound], in data set [1], the concentration in solution (solubility at 2 h) was 6.4 µM (≈ 3.38 µg/mL).
